By IC50 is commonly meant the midpoint of a concentration-inhibition curve. What is called EC50 is the concentration giving half of the maximal effect. What is called EC90 is the point of the concentration-response curve where the effect stands at 90%. One may read the Vd as a proportionality between amount in the body and measured concentration, not a real space. Usually clearance stands for a measure of how efficiently the substance is removed, as volume per time. For orientation: half-life means the time in which the quantity being followed falls by half. One may read the AUC as the area under the concentration-time curve, a measure of exposure.

The source of these data is paper PMC11281459 (Viruses, 2024).

Data set [1] concerns the target hCoV-NL63 3CLPro (Human coronavirus NL63, UniProt P0C6X5). The experiment in a line: biochemical.
A short description of data set [2]: in vitro. The following applies: human.
Data set [3] addresses MERS-CoV 3CLPro (Middle East respiratory syndrome-related coronavirus, UniProt K9N7C7). The experiment in a line: biochemical.
The conditions of data set [4]: K18-hDPP4, mouse, in vivo.
Data set [5] concerns hCoV-OC43. As to the kind of experiment: microbe, parasite or virus in culture. Type of data set: cell-based. The note with it: Betacoronavirus 1, OC43, Huh-7, 120 h, read-out: EC50 Geomean.
In data set [6] the test system is MERS-CoV replicon. The experiment in a line: microbe, parasite or virus in culture. The following applies: Middle East respiratory syndrome-related coronavirus, A549, read-out: EC50 Geomean. Type of data set: cell-based.
For data set [7], the system named is MERS-CoV EMC 2012. The note with it: mouse, in vivo.
Data set [8] concerns the target hCoV-OC43 3CLPro (Human coronavirus OC43, UniProt P0C6X6). The experiment in a line: biochemical.
In data set [9] the target is SARS-CoV-1 3CLPro (Severe acute respiratory syndrome coronavirus, UniProt P0C6X7). The experiment in a line: biochemical.
Data set [10] concerns MERS-CoV. As to the kind of experiment: microbe, parasite or virus in culture. Type of data set: cell-based. The following applies: read-out: IC50 Mean ± SD.
Data set [11] relates to SARS-CoV-2 replicon. The following applies: read-out: EC50 Geomean.
The conditions of data set [12]: in vivo.
Data set [13] addresses hCoV-229E 3CLPro (Human coronavirus 229E, UniProt P0C6X1). As to the kind of experiment: biochemical.
Data set [14] concerns SARS-CoV-2. The experiment in a line: microbe, parasite or virus in culture. Type of data set: cell-based.
In data set [15] the test system is hCoV-229E. As to the kind of experiment: microbe, parasite or virus in culture. The note with it: Human coronavirus 229E, Huh-7, 120 h, read-out: EC50 Geomean. Type of data set: cell-based.
Data set [16] deals with hCoV-HKU1 3CLPro (Human coronavirus HKU1, UniProt P0C6X2). As to the kind of experiment: biochemical.
Sequence of hCoV-HKU1 3CLPro (P0C6X2 3335-3637 limits assumed): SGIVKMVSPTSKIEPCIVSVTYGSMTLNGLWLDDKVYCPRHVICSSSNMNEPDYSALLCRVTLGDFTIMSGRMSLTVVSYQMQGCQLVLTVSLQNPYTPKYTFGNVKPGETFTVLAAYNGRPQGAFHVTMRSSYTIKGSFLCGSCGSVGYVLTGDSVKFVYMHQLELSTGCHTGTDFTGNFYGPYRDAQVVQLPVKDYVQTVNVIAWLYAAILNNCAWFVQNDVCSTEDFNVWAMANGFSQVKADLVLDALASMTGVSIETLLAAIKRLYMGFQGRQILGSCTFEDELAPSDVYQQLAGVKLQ
In data set [17] the test system is SARS-CoV-2 USA-WA1/2020. Set-up: species or system transgenic K18-hACE2 mice. The note with it: mouse, in vivo.
Data set [18] is described as follows: in vitro. The note with it: African green monkey.
Data set [19] relates to MERS-CoV. As to the kind of experiment: microbe, parasite or virus in culture. Type of data set: cell-based. The note with it: for EC90: read-out: EC90 Mean ± SD.
Data set [20] in a line: in vivo. The following applies: female, CD-1, mouse; for AUC: po.
Data set [21] concerns COVID-19. The following applies: human, in vivo; cited from earlier work.
For data set [22] the following is noted: in vivo; cited from earlier work.
Data set [23] deals with SARS-CoV-2 replicon. As to the kind of experiment: microbe, parasite or virus in culture. The note with it: Severe acute respiratory syndrome coronavirus 2, A549, read-out: EC50 Geomean.
In data set [24] the test system is SARS-CoV-2 (Omicron EG.5.1) and MERS-CoV. Type of data set: cell-based.
For data set [25], the system named is Vero E6+TMPRSS2 cells.
Setting [26] is: Middle East respiratory syndrome-related coronavirus, VeroE6/TMPRSS2, 48 h.
[27] abbreviates: Severe acute respiratory syndrome coronavirus 2, read-out: EC50 Geomean.
Where [28] appears, read: Middle East respiratory syndrome-related coronavirus, VeroE6/TMPRSS2, 72 h, read-out: EC50 Mean ± SD.
The mark [29] stands for this setting: Middle East respiratory syndrome-related coronavirus, read-out: EC50 Geomean.
Setting [30] is: Middle East respiratory syndrome-related coronavirus.

Values joined by “and” are separate entries in the source; they are usually repeats but may differ in a detail not shown here. Equal entries are not always repeated. Where two headings read alike, the source gives them in different places.

Sequence of hCoV-NL63 3CLPro (P0C6X5 2940-3242 limits assumed): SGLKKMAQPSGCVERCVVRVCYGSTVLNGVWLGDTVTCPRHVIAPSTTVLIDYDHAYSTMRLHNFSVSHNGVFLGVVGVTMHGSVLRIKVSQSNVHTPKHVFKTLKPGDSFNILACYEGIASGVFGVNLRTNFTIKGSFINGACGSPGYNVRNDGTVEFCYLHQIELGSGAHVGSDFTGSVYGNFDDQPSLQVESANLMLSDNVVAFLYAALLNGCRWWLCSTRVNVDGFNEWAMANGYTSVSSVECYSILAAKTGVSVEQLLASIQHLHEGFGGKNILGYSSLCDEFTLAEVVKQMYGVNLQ
Sequence of hCoV-OC43 3CLPro (P0C6X6 3247-3549 limits assumed): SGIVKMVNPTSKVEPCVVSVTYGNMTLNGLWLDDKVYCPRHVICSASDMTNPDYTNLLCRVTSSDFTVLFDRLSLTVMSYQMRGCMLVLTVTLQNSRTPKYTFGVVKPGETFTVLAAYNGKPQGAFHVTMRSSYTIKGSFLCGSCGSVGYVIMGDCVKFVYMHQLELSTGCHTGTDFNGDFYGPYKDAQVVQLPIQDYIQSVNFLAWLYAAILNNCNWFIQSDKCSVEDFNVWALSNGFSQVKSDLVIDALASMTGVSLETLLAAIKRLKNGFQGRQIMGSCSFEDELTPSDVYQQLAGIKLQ
Sequence of hCoV-229E 3CLPro (P0C6X1 2966-3267 limits assumed): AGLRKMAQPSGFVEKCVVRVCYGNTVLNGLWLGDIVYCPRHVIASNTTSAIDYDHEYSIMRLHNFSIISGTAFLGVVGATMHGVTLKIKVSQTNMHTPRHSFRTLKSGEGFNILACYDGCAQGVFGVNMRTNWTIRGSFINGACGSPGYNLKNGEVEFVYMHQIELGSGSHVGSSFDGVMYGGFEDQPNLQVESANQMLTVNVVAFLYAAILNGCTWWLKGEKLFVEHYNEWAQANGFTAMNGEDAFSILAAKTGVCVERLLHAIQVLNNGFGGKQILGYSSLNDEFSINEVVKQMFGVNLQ
Sequence of MERS-CoV 3CLPro (K9N7C7 3248-3553 limits assumed): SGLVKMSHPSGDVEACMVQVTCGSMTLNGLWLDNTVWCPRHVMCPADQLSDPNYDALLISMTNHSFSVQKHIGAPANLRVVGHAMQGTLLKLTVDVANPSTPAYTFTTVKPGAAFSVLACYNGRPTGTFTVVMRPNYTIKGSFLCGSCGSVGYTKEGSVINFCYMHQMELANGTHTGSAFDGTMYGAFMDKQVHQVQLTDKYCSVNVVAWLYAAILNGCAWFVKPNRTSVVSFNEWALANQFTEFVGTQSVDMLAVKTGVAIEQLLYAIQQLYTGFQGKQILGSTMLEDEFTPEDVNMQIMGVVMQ

On to `CNC(=O)C(=O)[C@H](CCC(C)(F)F)NC(=O)[C@@H]1[C@H]2CCC[C@H]2CN1C(=O)[C@@H](NC(=O)OC)C(C)(C)C` [MK-7845], for which the “unbound mouse plasma fraction (fup)” value is given as 0.379. The molecule also came in with a half-inhibitory concentration (IC50) in data set [1] of 167 nM. In addition, the half-maximal effective concentration (EC50) in data set [2] is above 36000 nM. In data set [3], this molecule showed a 50% inhibitory concentration (IC50) of 318 nM. Also, the “plasma levels at troughs versus PBA EC90” value in data set [4] is given as “above the PBA EC90”. For the same molecule, the half-maximal effective concentration (EC50) in data set [5] stood at 370 nM. Moreover, in data set [6], the EC50 stood at 270 nM. For the same molecule, in data set [7], the “PFU assay of lung homogenate” value was “no plaques were formed”; the “decrease in viral burden by PFU assay compared to vehicle-treated mice” value is ~ 6 log; the “lung pathology (H&E, semi-quantitative)” value is “notable reduction in lung pathology”; the “reduction in viral burden compared to vehicle-control group” value turned out to be 3 log TCID50. Further, in data set [7], the “reduction in viral load by PFU assay in comparison to nirmatrelvir” value was 2.9 log and 3.6 log; the “viral genomic RNA in lung tissue by RT-PCR” value is “did not observe a significant reduction”. Also, in data set [7] (po), the “reduction in viral burdens in the lungs” value is recorded as above 6 log orders. Further, the 50% inhibitory concentration (IC50) in [8] was found to be 17 nM. The molecule further returned an IC50 in data set [9] of 19.2 nM. In data set [10] (setting [26]), the half-inhibitory concentration (IC50) came to 360 nM. Moreover, the IC50 in data set [10] came to 362 ± 65 nM. The concentration giving a half-maximal response (EC50) in data set [11] stood at 15 nM. In [12] (CD-1, mouse), the “plasma concentrations versus PBA EC90” value is given as “above the PBA EC90”. The “total plasma concentrations versus replicon EC90 and PBA EC90” value in data set [12] (mouse) was “stayed above”. This molecule also gave an IC50 in [13] of 307 nM. The EC50 in data set [14] (setting [27]) turned out to be 140 nM. In data set [15], the concentration giving a half-maximal response (EC50) was 3150 nM. Also, in data set [16], the midpoint of inhibition, the IC50, lay at 25.5 nM. Also, in data set [17], the body weight change entry is “gained weight”; the “lung pathology (H&E, semi-quantitative)” value is “significantly reduced”; the “lung pathology compared with vehicle group (H&E, semi-quantitative)” value is recorded as “similar”; the “reduction in lung viral load (TCID50)” value is on record as “no significant reduction in viral load”. In [17], the “reduction in viral burden (TCID50) versus the nirmatrelvir group” value is 3.4 log and 5 log; the “reduction in viral load by PFU assay compared to vehicle control” value was “did not show a significant reduction in viral load”; the “reduction of lung viral load (TCID50) compared to vehicle control” value is ~ 5 logs and ~ 6 logs. Also, the “reduction in viral burdens in the lungs” value in data set [17] (po) is given as above 6 log orders. The CC50 in [18] is above 100000 nM. Besides, the EC50 in [19] (setting [28]) came out at 460 nM. Besides, the concentration for a half-maximal effect (EC50) in [19] (setting [29]) came out at 390 nM. Further, the EC90 in [19] (setting [30]) stood at 541 ± 10 nM. The EC50 in data set [19] (read-out: EC50 Mean ± SD) came out at 463 ± 8 nM. For the same molecule, in data set [20] (iv, 5 mg/kg), the distribution volume (Vd) turned out to be 1.2 L/kg, the clearance stood at 17.5 mL/min/kg and the half-life is 47.4 min. In [20] (100 mg/kg), this molecule yielded an area under the curve (AUC) of 49.1 µg·h/mL. The molecule also yielded an exposure (AUC) in data set [20] (250 mg/kg) of 146 µg·h/mL. For the same molecule, in data set [20] (500 mg/kg), the AUC was determined as 238 µg·h/mL. Moreover, in [20] (1000 mg/kg), the AUC came to 306 µg·h/mL.
On to `CC(C)(C)[C@H](NC(=O)C(F)(F)F)C(=O)N1C[C@H]2[C@@H]([C@H]1C(=O)N[C@H](C#N)C[C@@H]1CCNC1=O)C2(C)C` [Nirmatrelvir, nirmatrelvir], for which the concentration giving a half-maximal response (EC50) in data set [2] was above 36000 nM; in data set [5] it was 163 nM; in data set [6], 60 nM; in data set [23], 10 nM; in [14] (setting [27]) it was 70 nM; in [14] (read-out: EC50 Mean ± SD), 50 ± 10 nM. Besides, the EC50 was determined as 473 nM in [15], 88 ± 30 nM in data set [19] (setting [28]) and 70 nM in data set [19] (setting [29]). Besides, the “reduction in hospitalization rates and deaths” value in [21] was 80–90%. In addition, in data set [22], the “increase of plasma levels by ritonavir” value is “up to 20 fold”. Besides, the “lung viral loads (TCID50), dose validation” value in data set [7] and in [17] was “significant reduction in the lung viral loads” throughout. In addition, in [10] (setting [26]), the IC50 was 117 ± 23 nM. In addition, the “lung pathology compared with vehicle group (H&E, semi-quantitative)” value in [17] is “similar”. The “viral lung burden (TCID50 and PFU assay)” value in data set [17] was ~ 6 logs. The CC50 in [18] is above 100000 nM. In addition, the 90% effect concentration (EC90) in [19] (setting [30]) worked out at 164 ± 10 nM.
Regarding `CCC(CC)COC(=O)[C@H](C)N[P@](=O)(OC[C@H]1O[C@@](C#N)(c2ccc3c(N)ncnn23)[C@H](O)[C@@H]1O)Oc1ccccc1` [Remdesivir, remdesivir], in [24], the “shift in activity in the presence versus the absence of the P-GP inhibitor” value was “significant shift in activity”. Also, the EC50 in data set [6] is 780 nM; in data set [23], 270 nM; in [14] (Severe acute respiratory syndrome coronavirus 2, VeroE6/TMPRSS2, 72 h, read-out: EC50 Mean ± SD) it was 149 ± 4 nM; in [14] (setting [27]), 170 nM; in data set [14] (read-out: EC50 Mean ± SD), 110 nM and 163 nM and 94 nM and 155 nM and 90 nM and 141 nM and 150 nM; in data set [19] (setting [28]) it was 110 ± 18 nM. For the same molecule, in data set [19] (setting [29]), the EC50 worked out at 150 nM. In [10] (setting [26]), the concentration for half-maximal inhibition (IC50) was found to be 167 ± 33 nM. Moreover, in data set [18], the CC50 was 20000 nM. Further, the EC90 in data set [19] (setting [30]) stood at 240 ± 93 nM.
For the molecule `COc1cc2c(cc1OC)CN(CCc1ccc(NC(=O)c3cccc4c(=O)c5cccc(OC)c5[nH]c34)cc1)CC2` [elacridar], the “effect of P-GP inhibitor on the infection” value in data set [24] is listed as “did not show an effect on the infection”. The “toxicity of P-GP inhibitor to cells” value in data set [25] is “not toxic”.
